We go through nine molecules from article PMC7501440 (Heliyon, 2020).

Experiment [1] concerns the target T1, Human acetycholinesterase (hAChE) (Homo sapiens, UniProt P22303).
T1 construct: purchased Sigma
In words: hAChE inhibition assay, modified Ellman's colorimetric protocol. It counts as biochemical. As to the method:
(§1) Human acetycholinesterase (hAChE) activities were determined with a slight modification of Ellman's colorimetric protocol. […] The bioactivity was determined by evaluating the hydrolysis rate of acetylthiocholine iodide (ATCI, 0.1 mM) with the final volume of 300 μL with a phosphate buffer of 180 μL of 100 mM, pH 7.3 and 2 mM DTNB 0.09U of hAChE (Sigma) were applied to this solution and pre-incubated for 45 min at room temperature. The 96-well microplate was read in a microplate reader (Ensight Multimode Reader, Perkin Elmer) at 412 nm after adding DTNB and ATCI. The enzyme kinetic parameters were determined by incubating the substrate at multiple concentrations with or without test inhibitor by double-reciprocal (Lineweaver- Burk) plots in 0.09U of hAChE. From the Lineweaver-Burk plots, the inhibition mechanisms were measured graphically. The kinetics were performed using a series of concentrations of 4a to 4e and substrate AChI at 412 nm. The quantitative datas were expressed as mean ± SD results from three independent experiments. GraphPad Prism version 6.01 (GraphPad Software Inc., San Diego, USA) was used for regression analysis to calculate the IC50 values and the enzyme kinetic parameters (Km, Vmax). The IC50 and enzyme kinetics values (Vmax and Km) were calculated by this formula IC50 Y = min + max-min/1+(X/EC50)^−Hillslops. . Vmax and Km Y = Vmax∗X/(Km + X).
(§2) An evaluation of the therapeutic potential in the treatment of AD of target compounds 4a, 4b, 4c, 4d and 4e were measured for AChE inhibitory activity using the Ellman method. To find the inhibitory effects, the test compounds were incubated with multiple concentrations of human AChE. […] These compounds were designed from the trans-tephrostachin. It was isolated and structuraly characterized from Tephrosia purpurea in our previous studies. To investigate the mechanism of trans-tephrostachin derivatives against AChE, kinetic studies were conducted for all compounds. Such plots presented a secondary plot of Km/Vmax versus test compound concentrations for the Km and Vmax. […] Compound 4a is a trans-tephrostachin which was isolated and structurally characterized previously.

Experiment [2] concerns the target T1, Human acetycholinesterase (hAChE). Put plainly: hAChE enzyme kinetics, Lineweaver-Burk and secondary plots. In kind it is biochemical. The settings on record: for Vmax: hAChE in presence of inhibitor, without inhibitor 0.34 ± 0.01; for Inhibition type: hAChE, Lineweaver-Burk plots. As to the method:
as §1, §2

For a further experiment, the system named is AChE. Also on record: method as in PMID 17962731. The settings on record: AChE inhibition; cited from earlier work.
Where [3] appears, read: human AChE, Ellman method, average of three sets of assays, read-out: IC50 Concentration.
Setting [4] is: human AChE, secondary plot of Km/Vmax versus compound concentration, read-out: Ki.

Where two headings read alike, the source gives them in different places.

T1 sequence (P22303 32-614): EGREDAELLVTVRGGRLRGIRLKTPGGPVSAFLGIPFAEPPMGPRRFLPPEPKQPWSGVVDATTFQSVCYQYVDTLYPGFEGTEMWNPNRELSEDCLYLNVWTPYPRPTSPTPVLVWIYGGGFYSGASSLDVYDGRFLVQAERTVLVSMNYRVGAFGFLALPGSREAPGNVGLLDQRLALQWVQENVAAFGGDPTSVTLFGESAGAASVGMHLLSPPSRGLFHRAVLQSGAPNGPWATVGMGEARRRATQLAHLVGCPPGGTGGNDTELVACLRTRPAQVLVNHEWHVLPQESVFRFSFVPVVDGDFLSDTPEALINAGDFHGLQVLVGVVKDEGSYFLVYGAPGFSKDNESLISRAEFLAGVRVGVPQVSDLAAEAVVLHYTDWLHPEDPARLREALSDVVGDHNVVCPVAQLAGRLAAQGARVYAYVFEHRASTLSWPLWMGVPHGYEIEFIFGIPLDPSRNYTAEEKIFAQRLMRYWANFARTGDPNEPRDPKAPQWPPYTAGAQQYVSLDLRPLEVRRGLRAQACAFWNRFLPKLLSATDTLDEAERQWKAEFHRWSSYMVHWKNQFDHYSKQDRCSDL

The Ki is a measure of affinity in units of concentration, obtained from inhibition or displacement. Turning to `COc1cc(OC)c2c(=O)cc(-c3ccccc3)oc2c1/C=C/C(C)(C)O` [Compound 4a, (E)-8-(3-hydroxy-3-methylbut-1-en-1-yl)-5,7-dimethoxy-2-phenyl-4H-chromen-4-one], the IC50 in experiment [1] (setting [3]) was 35 ± 1.2 µM. Further, in experiment [2], the Vmax worked out at 0.13 ± 0.08 and the Inhibition type entry was “mixed type inhibition”. The Ki in experiment [2] (setting [4]) is 29.3 ± 7.2 µM.
With `CCOc1cc(OCC)c2c(=O)cc(-c3ccccc3)oc2c1/C=C/C(C)(C)O` [Compound 4b, (E)-5,7-diethoxy-8-(3-hydroxy-3-methylbut-1-en-1-yl)-2-phenyl-4H-chromen-4-one], the IC50 in experiment [1] (setting [3]) came out at 35.6 ± 2.8 µM. In experiment [2], the Vmax stood at 0.34 ± 0.01 and the Inhibition type result is reported as “Competitive inhibition”. For the same molecule, in experiment [2] (setting [4]), the Ki was 206 ± 12 µM.
Taken in the same sequence, the figures for `CC(C)(O)/C=C/c1c(OC(=O)c2ccccc2)cc(OC(=O)c2ccccc2)c2c(=O)cc(-c3ccccc3)oc12` [Compound 4c, (E)-8-(3-hydroxy-3-methylbut-1-en-1-yl)-4-oxo-2-phenyl-4H-chromene-5,7-diyl dibenzoate] were 10.6 ± 2.8 µM, 0.14 ± 0.1, “mixed type inhibition” and 46.4 ± 9.5 µM.
Regarding `CC(C)(O)/C=C/c1c(OC(=O)c2ccc([N+](=O)[O-])cc2)cc(OC(=O)c2ccc([N+](=O)[O-])cc2)c2c(=O)cc(-c3ccccc3)oc12` [Compound 4d, (E)-8-(3-hydroxy-3-methylbut-1-en-1-yl)-4-oxo-2-phenyl-4H-chromene-5,7-diyl bis(4-nitrobenzoate)], in experiment [1], the IC50 was 10.3 µM. In experiment [2], the affinity corresponds to a Ki of 8.25 ± 1.7 µM, the Vmax is 0.15 ± 0.01 and the Inhibition type result is “mixed type inhibition”.
For the molecule `CC(=O)Oc1cc(OC(C)=O)c2c(=O)cc(-c3ccccc3)oc2c1/C=C/C(C)(C)O` [Compound 4e, (E)-8-(3-hydroxy-3-methylbut-1-en-1-yl)-4-oxo-2-phenyl-4H-chromene-5,7-diyl diacetate], in experiment [1] (setting [3]), the IC50 came to 28.1 ± 2.1 µM. Moreover, in experiment [2], the Vmax is 0.36 ± 0.2 and the Inhibition type entry was “Competitive inhibition”. Besides, the inhibitory constant (Ki) in experiment [2] (setting [4]) amounted to 198 ± 10.1 µM.
With `C[n+]1c2n(c(=O)c3ccccc31)CCc1c-2[nH]c2ccccc12` [dehydroevodiamine], the IC50 in the experiment with AChE is 37.8 µM.
Take `O=c1c(O)c(-c2ccc(O)c(O)c2)oc2cc(O)cc(O)c12` [quercetin]: the IC50 with AChE was […].
Regarding `C[C@@H]1O[C@@H](Oc2c(-c3ccc(O)c(O)c3)oc3cc(O)cc(O)c3c2=O)[C@H](O)[C@H](O)[C@H]1O` [quercitrin], the IC50 in the experiment on AChE was 66.9 µM.
With `O=C(/C=C/c1ccc(O)cc1)OC[C@H]1O[C@@H](Oc2c(-c3ccc(O)cc3)oc3cc(O)cc(O)c3c2=O)[C@H](O)[C@@H](O)[C@@H]1O` [tiliroside], in the experiment with AChE, the IC50 was 23.5 µM.
